According to patent publication US20260337583A1, “CYTOCHROME P450 ENZYME, NUCLEIC ACID MOLECULE, AND GLYCYRRHETINIC ACID DERIVATIVE AND USE THEREOF” (CHINA PHARMACEUTICAL UNIVERSITY, priority 2023, published 2026):
Read-outs that look alike come from different tables or passages of the source.

How the values were obtained:
[1] = system: Human hepatocellular carcinoma cells (HepG2); experiment: CCK-8 tumor cell growth inhibition, HepG2; assay type: cell-based; conditions: for IC50: Homo sapiens, HepG2, 48 h co-incubation, CCK-8, read-out: IC50 against HepG2
Experimental: (§1) Human hepatocellular carcinoma cells (HepG2) and human colon cancer cells (SW480) were cultured in a complete culture medium consisting of high-glucose DMEM supplemented with 10% (v/v) heat-inactivated fetal bovine serum, 100 U/mL of penicillin, and […] of streptomycin. All cells used in the experiments were cultured in an incubator at 37° C. with 5% CO2 saturated humidity.
(§2) All compounds were dissolved in DMSO to prepare 20 mM compound stock solutions. • 10 μL of the compound stock solution was added to 1 mL of the complete culture medium to prepare a 200 μM compound solution; • 4 μL of the compound stock solution was added to 1 mL of the complete culture medium to prepare a 80 μM compound solution; • 0.5 mL of the 80 μM compound solution was added to 0.5 mL of the complete culture medium to prepare a 40 μM compound solution; • 0.5 mL of the 40 μM compound solution was added to 0.5 mL of the complete culture medium to prepare a 20 μM compound solution; • 0.5 mL of the 20 μM compound solution was added to 0.5 mL of the complete culture medium to prepare a 10 μM compound solution; • 0.5 mL of the 10 μM compound solution was added to 0.5 mL of the complete culture medium to prepare a 5 μM compound solution;
(§3) The inhibitory effects of the compounds on tumor cell growth were evaluated using a CCK-8 assay. A cell suspension at a predetermined density (5× 10^4/mL cells/mL) was seeded into a 96-well plate. Outermost 36 wells of the 96-well plate were filled with 200 μL of PBS buffer (0.01 M, pH 7.4), while inner 60 wells thereof were used as a drug group, a blank group, and a negative control group. Each group was tested in triplicate.
(§4) Drug group: 100 μL of the cell suspension was added to each well and incubated for 24 h, and 100 μL of the 80 μM compound solution (100 μL of the 200 μM solution was added to Compound 1) was added for co-incubating for another 48 h; 20 μL of CCK-8 solution was added to each well, followed by incubation for another 2 h; and absorbance at 450 nm was measured with a microplate reader.
(§5) Blank group: 100 μL of the complete culture medium was added to each well and incubated for 24 h, and 100 μL of the complete culture medium was then added for co-incubating for another 48 h; 20 μL of CCK-8 solution was added to each well, followed by incubation for another 2 h; and absorbance at 450 nm was measured with a microplate reader.
(§6) Negative control group: 100 μL of the cell suspension was added to each well and incubated for 24 h, and 100 μL of the complete culture medium containing 0.4 μL of DMSO was then added for co-incubating for another 48 h; 20 μL of CCK-8 solution was added to each well, followed by incubation for another 2 h; and absorbance at 450 nm was measured with a microplate reader.
(§7) The cell growth inhibitory ratio (IR) was calculated according to the following formulas:
(§8) [formula] • IR: Inhibitory Ratio • ODpositive: absorbance of the drug group • ODblank: absorbance of the blank group • ODnegative: absorbance of the negative control group
(§9) Each concentration was tested in triplicate. Based on the tumor cell inhibitory ratios at different concentrations, the IC50 was calculated using GraphPad Prism 9.

[2] = system: human colon cancer cells (SW480); experiment: CCK-8 tumor cell growth inhibition, SW480; assay type: cell-based; conditions: for IC50: Homo sapiens, SW480, 48 h co-incubation, CCK-8, read-out: IC50 against SW480; for activity against human colon cancer cells compared with the parent compound 1 (glycyrrhetinic acid): relative to parent compound 1
Experimental: as §1, §2, §3, §4, §5, §6, §7, §8, §9

[3] = biological target: T1, CYP161H12 (Amycolatopsis pretoriensis, UniProt A0A1H5RFX8); experiment: CYP161H12 catalytic activity on different substrates (cell-free CYP161H12-RHFRed/opt13 conversion, liquid chromatography); conditions: role: substrate; 2 mM substrate, 0.5 equiv. NADP+, 50 equiv. Na2HPO3·5H2O, 5% DMSO, pH 7.0, 23° C., 20 h; enzyme 3.68×10^−3 mM
[4] = biological target: T1, CYP161H12

T1 sequence (A0A1H5RFX8 1-404): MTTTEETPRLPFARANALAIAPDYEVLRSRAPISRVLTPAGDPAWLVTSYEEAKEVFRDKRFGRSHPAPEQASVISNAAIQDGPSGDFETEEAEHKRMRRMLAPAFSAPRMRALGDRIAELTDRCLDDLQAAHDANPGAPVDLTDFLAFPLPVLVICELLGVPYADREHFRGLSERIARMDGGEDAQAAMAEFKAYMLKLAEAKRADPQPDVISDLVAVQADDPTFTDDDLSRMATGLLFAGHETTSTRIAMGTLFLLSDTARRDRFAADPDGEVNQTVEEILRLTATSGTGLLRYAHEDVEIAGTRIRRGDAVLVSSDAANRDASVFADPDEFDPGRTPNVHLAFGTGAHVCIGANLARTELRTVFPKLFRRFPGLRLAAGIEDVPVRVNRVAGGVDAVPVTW

| SMILES | IC50 [1] [µM] | IC50 [2] [µM] | other results |
| --- | --- | --- | --- |
| CCCC(=O)O[C@H]1CC[C@]2(C)[C@H]3C(=O)C=C4[C@@H]5C[C@@](C)(C(=O)O)CC[C@]5(C)CC[C@@]4(C)[C@]3(C)CC[C@H]2C1(C)C [Substrate 4, 3-butyryl-glycyrrhetinic acid] |  |  | yield of Substrate catalyzed by CYP161H12 [3]: 23% |
| CCC(=O)O[C@H]1CC[C@]2(C)[C@H]3C(=O)C=C4[C@@H]5C[C@@](C)(C(=O)O)CC[C@]5(C)CC[C@@]4(C)[C@]3(C)[C@@H](O)C[C@H]2C1(C)C [Compound 3a] | > 40 | > 40 |  |
| CC(=O)O[C@H]1CC[C@]2(C)[C@H]3C(=O)C=C4[C@@H]5C[C@@](C)(C(=O)O)CC[C@]5(C)C[C@H](O)[C@@]4(C)[C@]3(C)[C@@H](O)C[C@H]2C1(C)C [Compound 2b] | > 40 | > 40 |  |
| CC1(C)[C@@H](O)CC[C@]2(C)[C@H]3C(=O)C=C4[C@@H]5C[C@@](C)(C(=O)O)CC[C@]5(C)C[C@H](O)[C@@]4(C)[C@]3(C)[C@@H](O)C[C@@H]12 [Compound 1b] | > 40 | > 40 |  |
| CC1(C)OC(=O)CC[C@]2(C)[C@H]3C(=O)C=C4[C@@H]5C[C@@](C)(C(=O)O)CC[C@]5(C)CC[C@@]4(C)[C@]3(C)CC[C@@H]12 [Substrate 7] |  |  | yield of Substrate catalyzed by CYP161H12 [3]: 87% |
| CC1(C)C(=O)CC[C@]2(C)[C@H]3C(=O)C=C4[C@@H]5C[C@@](C)(C(=O)O)CC[C@]5(C)CC[C@@]4(C)[C@]3(C)CC[C@@H]12 [Substrate 5, 3-oxo-glycyrrhetinic acid] |  |  | ratio of hydroxylated products a:b [4]: 76:24; yield of Substrate catalyzed by CYP161H12 ([4]; pH 7): 87% |
| CC(=O)O[C@H]1CC[C@]2(C)[C@H]3C(=O)C=C4[C@@H]5C[C@@](C)(C(=O)O)CC[C@]5(C)CC[C@@]4(C)[C@]3(C)[C@@H](O)C[C@H]2C1(C)C [Compound 2a] | > 40 | > 40 |  |
| CC1(C)[C@@H](O)CC[C@]2(C)[C@H]3C(=O)C=C4[C@@H]5C[C@@](C)(C(=O)O)CC[C@]5(C)CC[C@@]4(C)[C@]3(C)[C@@H](O)C[C@@H]12 [Compound 1a] | > 40 | > 40 |  |
| CCC(=O)O[C@H]1CC[C@]2(C)[C@H]3C(=O)C=C4[C@@H]5C[C@@](C)(C(=O)O)CC[C@]5(C)CC[C@@]4(C)[C@]3(C)CC[C@H]2C1(C)C [Substrate 3, 3-propionyl-glycyrrhetinic acid] |  |  | yield of Substrate catalyzed by CYP161H12 [3]: 61% |
| CC1(C)[C@@H](O)CC[C@]2(C)[C@H]3C(=O)C=C4[C@@H]5C[C@@](C)(C(=O)O)CC[C@]5(C)CC[C@@]4(C)[C@]3(C)CC[C@@H]12 [Compound 1, glycyrrhetinic acid] | > 100 | > 100 | yield of Substrate catalyzed by CYP161H12 [3]: 100% |
| CC1(C)c2oncc2C[C@]2(C)[C@H]3C(=O)C=C4[C@H]5C[C@@](C)(C(=O)O)CC[C@]5(C)CC[C@@]4(C)[C@]3(C)CC[C@@H]12 [Substrate 8] |  |  | yield of Substrate catalyzed by CYP161H12 [3]: 97% |
| CC1(C)C(=O)C=C[C@]2(C)[C@H]3C(=O)C=C4[C@@H]5C[C@@](C)(C(=O)O)CC[C@]5(C)CC[C@@]4(C)[C@]3(C)CC[C@@H]12 [Substrate 6, 3-oxo-1-ene-glycyrrhetinic acid] |  |  | yield of Substrate catalyzed by CYP161H12 [3]: 81% |
| CC(=O)O[C@H]1CC[C@]2(C)[C@H]3C(=O)C=C4[C@@H]5C[C@@](C)(C(=O)O)CC[C@]5(C)CC[C@@]4(C)[C@]3(C)CC[C@H]2C1(C)C [Substrate 2, 3-acetyl-glycyrrhetinic acid] |  |  | yield of Substrate catalyzed by CYP161H12 [3]: 92% |

Second part, led by results:

| IC50 [1] [µM] | IC50 [2] [µM] | SMILES | other results |
| --- | --- | --- | --- |
| > 40 | > 40 | CC1(C)C(=O)CC[C@]2(C)[C@H]3C(=O)C=C4[C@@H]5C[C@@](C)(C(=O)O)CC[C@]5(C)C[C@H](O)[C@@]4(C)[C@]3(C)[C@@H](O)C[C@@H]12 [Compound 5b] |  |
| > 40 | > 40 | CC1(C)C(=O)C=C[C@]2(C)[C@H]3C(=O)C=C4[C@@H]5C[C@@](C)(C(=O)O)CC[C@]5(C)C[C@H](O)[C@@]4(C)[C@]3(C)[C@@H](O)C[C@@H]12 [Compound 6b] |  |
| > 40 | > 40 | CC1(C)OC(=O)CC[C@]2(C)[C@H]3C(=O)C=C4[C@@H]5C[C@@](C)(C(=O)O)CC[C@]5(C)CC[C@@]4(C)[C@]3(C)[C@@H](O)C[C@@H]12 [Compound 7a] |  |
| > 40 | > 40 | COC(=O)[C@@]1(C)CC[C@]2(C)CCC3(C)C(=CC(=O)[C@@H]4[C@@]5(C)CC[C@H](O)C(C)(C)[C@@H]5C[C@H](O)[C@]43C)[C@@H]2C1 (some centres unmarked) [Compound 9a] |  |
| > 40 | 39.2 ± 2.34 | C=CCCCCOC(=O)[C@@]1(C)CC[C@]2(C)CC[C@]3(C)C(=CC(=O)[C@@H]4[C@@]5(C)CC[C@H](O)C(C)(C)[C@@H]5C[C@H](O)[C@]43C)[C@@H]2C1 [Compound 10a] | activity against human colon cancer cells compared with the parent compound 1 (glycyrrhetinic acid) [2]: more than twice the activity |
| > 40 | > 40 | CCCC(=O)O[C@H]1CC[C@]2(C)[C@H]3C(=O)C=C4[C@@H]5C[C@@](C)(C(=O)O)CC[C@]5(C)CC[C@@]4(C)[C@]3(C)[C@@H](O)C[C@H]2C1(C)C [Compound 4a] |  |
| 38.6 ± 0.54 | 32 ± 3.36 | C=CCCCCOC(=O)[C@@]1(C)CC[C@]2(C)C[C@H](O)[C@]3(C)C(=CC(=O)[C@@H]4[C@@]5(C)CC[C@H](O)C(C)(C)[C@@H]5C[C@H](O)[C@]43C)[C@@H]2C1 [Compound 10b] | activity against human liver cancer cells compared with the parent compound 1 (glycyrrhetinic acid) ([1]; relative to parent compound 1): more than twice the activity; activity against human colon cancer cells compared with the parent compound 1 (glycyrrhetinic acid) [2]: more than twice the activity |
| > 40 | > 40 | CC1(C)c2oncc2C[C@]2(C)[C@H]3C(=O)C=C4[C@@H]5C[C@@](C)(C(=O)O)CC[C@]5(C)CC[C@@]4(C)[C@]3(C)[C@@H](O)C[C@@H]12 [Compound 8a] |  |
| > 40 | > 40 | COC(=O)[C@@]1(C)CC[C@]2(C)C[C@H](O)[C@]3(C)C(=CC(=O)[C@@H]4[C@@]5(C)CC[C@H](O)C(C)(C)[C@@H]5C[C@H](O)[C@]43C)[C@@H]2C1 [Compound 9b] |  |
| > 40 | > 40 | CC1(C)OC(=O)CC[C@]2(C)[C@H]3C(=O)C=C4[C@@H]5C[C@@](C)(C(=O)O)CC[C@]5(C)C[C@H](O)[C@@]4(C)[C@]3(C)[C@@H](O)C[C@@H]12 [Compound 7b] |  |
| > 40 | > 40 | CC1(C)c2oncc2C[C@]2(C)[C@H]3C(=O)C=C4[C@@H]5C[C@@](C)(C(=O)O)CC[C@]5(C)C[C@H](O)[C@@]4(C)[C@]3(C)[C@@H](O)C[C@@H]12 [Compound 8b] |  |
| > 40 | > 40 | CC1(C)C(=O)CC[C@]2(C)[C@H]3C(=O)C=C4[C@@H]5C[C@@](C)(C(=O)O)CC[C@]5(C)CC[C@@]4(C)[C@]3(C)[C@@H](O)C[C@@H]12 [Compound 5a] |  |
| > 40 | > 40 | CC1(C)C(=O)C=C[C@]2(C)[C@H]3C(=O)C=C4[C@@H]5C[C@@](C)(C(=O)O)CC[C@]5(C)CC[C@@]4(C)[C@]3(C)[C@@H](O)C[C@@H]12 [Compound 6a] |  |
